# From ChEMBL document CHEMBL1134025, “Thiosugars. Part 9: synthesis and biological evaluation of some 4'-thio-L-arabino nucleoside analogues” (2001)
# Tested on: Vaccinia virus
# Test: Minimum inhibitory concentration required to reduce Vaccinia virus induced cytopathogenicity by 50%
# Type: functional
# Settings: Orthopoxvirus vaccinia
row,Structure (SMILES),MIC [µg/mL]
1,O=c1ccn([C@H]2S[C@@H](CO)[C@H](O)[C@H]2O)c(=O)[nH]1,400
2,O=c1ccn([C@@H]2S[C@@H](CO)[C@H](O)[C@H]2O)c(=O)[nH]1,400
3,Nc1ncnc2c1ncn2[C@@H]1S[C@@H](CO)[C@H](O)[C@H]1O,400
4,Nc1ncnc2c1ncn2[C@H]1S[C@@H](CO)[C@H](O)[C@H]1O,400
5,Nc1ccn(C2S[C@@H](CO)[C@H](O)[C@H]2O)c(=O)n1 (some centres not stated),400
6,Cc1cn([C@H]2S[C@@H](CO)[C@H](O)[C@H]2O)c(=O)[nH]c1=O,400
7,Cc1cn([C@@H]2S[C@@H](CO)[C@H](O)[C@H]2O)c(=O)[nH]c1=O,400
